Measured values from publication PMC11864979, “First-in-class ultralong-target-residence-time p38α inhibitors as a mitosis-targeted therapy for colorectal cancer” (Nature Cancer, 2025).
Read-outs that look alike come from different tables or passages of the source.

Legend:
Test in all cases: selectivity profiling in a panel of 340 wild-type kinases (Reaction Biology Europe)
Type in all cases: binding
340 wild-type kinases [1] = molecular target: T1, 340 wild-type kinases (Homo sapiens, UniProt Q8TD08)
T1 construct: purchased Reaction Biology Europe
T1 sequence (Q8TD08 1-544): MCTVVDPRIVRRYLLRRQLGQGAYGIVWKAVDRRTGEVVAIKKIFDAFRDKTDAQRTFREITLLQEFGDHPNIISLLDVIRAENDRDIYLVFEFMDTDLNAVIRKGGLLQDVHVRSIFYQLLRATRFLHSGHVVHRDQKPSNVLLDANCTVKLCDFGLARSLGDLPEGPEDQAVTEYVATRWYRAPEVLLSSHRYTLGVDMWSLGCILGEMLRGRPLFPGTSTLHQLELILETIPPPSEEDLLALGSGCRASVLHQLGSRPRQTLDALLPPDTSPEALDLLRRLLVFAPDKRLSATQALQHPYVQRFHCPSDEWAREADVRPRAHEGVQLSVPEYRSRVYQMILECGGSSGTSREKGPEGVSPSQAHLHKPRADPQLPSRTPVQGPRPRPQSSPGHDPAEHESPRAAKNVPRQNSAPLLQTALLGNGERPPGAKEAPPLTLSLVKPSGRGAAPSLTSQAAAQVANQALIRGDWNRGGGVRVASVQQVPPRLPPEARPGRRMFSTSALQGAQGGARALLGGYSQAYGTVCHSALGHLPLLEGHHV

340 wild-type kinases [2] = molecular target: T2, 340 wild-type kinases (Homo sapiens, UniProt P07949)
T2 construct: purchased Reaction Biology Europe
T2 sequence (P07949 29-1114): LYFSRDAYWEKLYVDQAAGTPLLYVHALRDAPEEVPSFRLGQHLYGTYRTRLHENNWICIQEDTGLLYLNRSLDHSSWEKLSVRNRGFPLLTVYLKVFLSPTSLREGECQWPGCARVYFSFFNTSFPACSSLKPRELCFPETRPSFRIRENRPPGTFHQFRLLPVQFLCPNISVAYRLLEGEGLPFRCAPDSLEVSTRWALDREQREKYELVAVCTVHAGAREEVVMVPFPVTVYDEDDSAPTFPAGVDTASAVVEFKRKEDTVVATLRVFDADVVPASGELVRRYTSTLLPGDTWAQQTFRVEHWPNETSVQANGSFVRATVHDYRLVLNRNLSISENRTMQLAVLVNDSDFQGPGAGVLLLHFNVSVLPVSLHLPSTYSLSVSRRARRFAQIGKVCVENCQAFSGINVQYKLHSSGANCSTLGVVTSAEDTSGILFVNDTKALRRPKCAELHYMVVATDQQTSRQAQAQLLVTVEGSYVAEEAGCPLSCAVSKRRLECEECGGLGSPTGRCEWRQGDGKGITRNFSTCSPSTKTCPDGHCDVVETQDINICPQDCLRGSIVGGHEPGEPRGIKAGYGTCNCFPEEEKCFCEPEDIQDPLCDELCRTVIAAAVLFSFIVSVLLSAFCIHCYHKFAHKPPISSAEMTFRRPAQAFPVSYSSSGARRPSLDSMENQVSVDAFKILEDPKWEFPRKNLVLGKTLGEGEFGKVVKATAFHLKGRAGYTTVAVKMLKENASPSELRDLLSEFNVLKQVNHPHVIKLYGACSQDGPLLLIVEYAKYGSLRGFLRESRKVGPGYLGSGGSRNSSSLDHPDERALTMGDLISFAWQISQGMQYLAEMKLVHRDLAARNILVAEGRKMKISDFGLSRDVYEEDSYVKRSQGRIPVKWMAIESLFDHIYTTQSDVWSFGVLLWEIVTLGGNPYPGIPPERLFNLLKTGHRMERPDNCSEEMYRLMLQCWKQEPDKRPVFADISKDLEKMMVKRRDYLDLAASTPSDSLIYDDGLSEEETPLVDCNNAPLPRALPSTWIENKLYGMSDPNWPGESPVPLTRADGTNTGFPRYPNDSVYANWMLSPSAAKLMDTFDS

340 wild-type kinases [3] = molecular target: T3, 340 wild-type kinases (Homo sapiens, UniProt Q9Y2U5)
T3 construct: purchased Reaction Biology Europe
T3 sequence (Q9Y2U5 1-619): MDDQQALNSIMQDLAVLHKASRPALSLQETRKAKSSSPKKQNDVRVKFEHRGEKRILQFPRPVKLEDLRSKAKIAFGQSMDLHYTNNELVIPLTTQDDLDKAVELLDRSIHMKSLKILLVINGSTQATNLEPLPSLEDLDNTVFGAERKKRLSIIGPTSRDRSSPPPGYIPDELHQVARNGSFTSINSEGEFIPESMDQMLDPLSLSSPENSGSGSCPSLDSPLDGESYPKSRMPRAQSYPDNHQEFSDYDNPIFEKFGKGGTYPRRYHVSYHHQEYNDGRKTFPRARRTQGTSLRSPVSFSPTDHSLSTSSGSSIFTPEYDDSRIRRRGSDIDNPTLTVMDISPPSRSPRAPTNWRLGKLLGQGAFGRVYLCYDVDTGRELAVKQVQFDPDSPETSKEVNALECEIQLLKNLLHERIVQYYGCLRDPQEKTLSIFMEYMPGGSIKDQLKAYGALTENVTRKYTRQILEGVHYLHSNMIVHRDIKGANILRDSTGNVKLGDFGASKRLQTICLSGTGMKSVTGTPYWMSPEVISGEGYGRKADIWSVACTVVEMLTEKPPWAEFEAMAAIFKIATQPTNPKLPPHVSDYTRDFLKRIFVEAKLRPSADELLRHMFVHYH

340 wild-type kinases [4] = molecular target: T4, 340 wild-type kinases (Homo sapiens, UniProt Q00536)
T4 construct: purchased Reaction Biology Europe

340 wild-type kinases [5] = molecular target: T5, 340 wild-type kinases (Homo sapiens, UniProt P24723)
T5 construct: purchased Reaction Biology Europe
T5 sequence (P24723 whole entry): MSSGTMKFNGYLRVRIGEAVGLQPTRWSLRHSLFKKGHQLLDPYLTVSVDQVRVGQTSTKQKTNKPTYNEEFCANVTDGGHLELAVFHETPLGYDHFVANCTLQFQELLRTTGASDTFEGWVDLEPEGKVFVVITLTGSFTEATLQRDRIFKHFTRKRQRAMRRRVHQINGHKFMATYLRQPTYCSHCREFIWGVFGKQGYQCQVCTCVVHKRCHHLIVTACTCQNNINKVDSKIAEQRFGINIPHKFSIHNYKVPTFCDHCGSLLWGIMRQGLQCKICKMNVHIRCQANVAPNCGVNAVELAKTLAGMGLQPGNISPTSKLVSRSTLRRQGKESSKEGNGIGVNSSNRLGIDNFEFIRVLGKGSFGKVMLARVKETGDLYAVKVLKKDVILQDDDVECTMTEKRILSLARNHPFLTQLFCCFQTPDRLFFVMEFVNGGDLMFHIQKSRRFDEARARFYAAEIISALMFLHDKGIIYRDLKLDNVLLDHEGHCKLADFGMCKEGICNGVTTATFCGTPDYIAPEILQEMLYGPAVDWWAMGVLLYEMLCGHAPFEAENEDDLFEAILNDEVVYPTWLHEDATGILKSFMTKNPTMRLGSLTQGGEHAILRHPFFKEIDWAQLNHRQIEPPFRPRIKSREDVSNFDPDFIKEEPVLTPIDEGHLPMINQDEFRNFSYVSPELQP

340 wild-type kinases [6] = molecular target: T6, 340 wild-type kinases (Homo sapiens, UniProt O14733)
T6 construct: purchased Reaction Biology Europe
T6 sequence (O14733 1-419): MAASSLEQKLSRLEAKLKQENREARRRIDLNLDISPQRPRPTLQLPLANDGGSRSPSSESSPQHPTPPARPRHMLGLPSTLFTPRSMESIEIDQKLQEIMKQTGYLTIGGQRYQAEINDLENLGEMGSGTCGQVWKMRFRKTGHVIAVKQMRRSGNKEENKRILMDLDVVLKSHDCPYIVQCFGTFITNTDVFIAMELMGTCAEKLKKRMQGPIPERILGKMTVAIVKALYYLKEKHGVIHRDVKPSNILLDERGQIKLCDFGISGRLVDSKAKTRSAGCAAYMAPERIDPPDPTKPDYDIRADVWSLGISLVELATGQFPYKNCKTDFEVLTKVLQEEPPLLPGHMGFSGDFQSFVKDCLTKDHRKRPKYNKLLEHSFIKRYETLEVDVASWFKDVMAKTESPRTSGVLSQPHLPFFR

340 wild-type kinases [7] = molecular target: T7, 340 wild-type kinases (Homo sapiens, UniProt Q96GD4)
T7 construct: purchased Reaction Biology Europe

340 wild-type kinases [8] = molecular target: T8, 340 wild-type kinases (Homo sapiens, UniProt P08069)
T8 construct: purchased Reaction Biology Europe
T8 sequence (P08069 31-1367): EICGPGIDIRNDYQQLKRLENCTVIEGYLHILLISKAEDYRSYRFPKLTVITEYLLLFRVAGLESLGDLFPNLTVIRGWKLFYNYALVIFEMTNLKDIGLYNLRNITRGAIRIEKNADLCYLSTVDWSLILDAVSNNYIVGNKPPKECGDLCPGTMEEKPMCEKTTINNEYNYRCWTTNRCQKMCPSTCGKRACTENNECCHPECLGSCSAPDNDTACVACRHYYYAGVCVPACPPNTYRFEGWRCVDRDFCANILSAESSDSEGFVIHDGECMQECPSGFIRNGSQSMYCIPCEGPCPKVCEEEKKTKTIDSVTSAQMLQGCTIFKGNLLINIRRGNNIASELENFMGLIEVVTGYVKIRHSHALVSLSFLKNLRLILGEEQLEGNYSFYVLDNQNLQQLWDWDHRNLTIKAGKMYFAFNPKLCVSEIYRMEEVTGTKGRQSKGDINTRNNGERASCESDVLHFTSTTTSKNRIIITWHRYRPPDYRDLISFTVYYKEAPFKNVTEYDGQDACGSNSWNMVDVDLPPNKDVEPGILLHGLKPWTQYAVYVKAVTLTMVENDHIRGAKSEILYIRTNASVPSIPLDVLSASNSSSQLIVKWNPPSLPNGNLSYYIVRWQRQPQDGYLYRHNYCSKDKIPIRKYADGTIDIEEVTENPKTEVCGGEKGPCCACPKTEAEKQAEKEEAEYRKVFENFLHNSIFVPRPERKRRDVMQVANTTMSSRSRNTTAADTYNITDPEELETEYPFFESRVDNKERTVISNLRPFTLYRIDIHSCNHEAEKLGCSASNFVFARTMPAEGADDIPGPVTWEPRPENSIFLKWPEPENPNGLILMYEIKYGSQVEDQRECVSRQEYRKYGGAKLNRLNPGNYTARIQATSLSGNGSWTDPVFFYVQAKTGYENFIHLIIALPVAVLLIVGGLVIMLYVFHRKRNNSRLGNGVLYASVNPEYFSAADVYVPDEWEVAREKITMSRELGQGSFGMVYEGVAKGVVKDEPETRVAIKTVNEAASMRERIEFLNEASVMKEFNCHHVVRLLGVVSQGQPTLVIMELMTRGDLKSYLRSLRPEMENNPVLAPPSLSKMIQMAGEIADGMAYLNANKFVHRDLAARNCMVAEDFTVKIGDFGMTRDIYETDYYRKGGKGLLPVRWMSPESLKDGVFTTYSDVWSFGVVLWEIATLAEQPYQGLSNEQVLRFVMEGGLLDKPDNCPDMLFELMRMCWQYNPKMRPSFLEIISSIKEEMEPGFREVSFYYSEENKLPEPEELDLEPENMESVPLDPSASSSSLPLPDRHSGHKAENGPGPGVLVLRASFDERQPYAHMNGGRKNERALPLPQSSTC

340 wild-type kinases [9] = molecular target: T9, 340 wild-type kinases (Homo sapiens, UniProt Q9Y5S2)
T9 construct: purchased Reaction Biology Europe
T9 sequence (Q9Y5S2 whole entry): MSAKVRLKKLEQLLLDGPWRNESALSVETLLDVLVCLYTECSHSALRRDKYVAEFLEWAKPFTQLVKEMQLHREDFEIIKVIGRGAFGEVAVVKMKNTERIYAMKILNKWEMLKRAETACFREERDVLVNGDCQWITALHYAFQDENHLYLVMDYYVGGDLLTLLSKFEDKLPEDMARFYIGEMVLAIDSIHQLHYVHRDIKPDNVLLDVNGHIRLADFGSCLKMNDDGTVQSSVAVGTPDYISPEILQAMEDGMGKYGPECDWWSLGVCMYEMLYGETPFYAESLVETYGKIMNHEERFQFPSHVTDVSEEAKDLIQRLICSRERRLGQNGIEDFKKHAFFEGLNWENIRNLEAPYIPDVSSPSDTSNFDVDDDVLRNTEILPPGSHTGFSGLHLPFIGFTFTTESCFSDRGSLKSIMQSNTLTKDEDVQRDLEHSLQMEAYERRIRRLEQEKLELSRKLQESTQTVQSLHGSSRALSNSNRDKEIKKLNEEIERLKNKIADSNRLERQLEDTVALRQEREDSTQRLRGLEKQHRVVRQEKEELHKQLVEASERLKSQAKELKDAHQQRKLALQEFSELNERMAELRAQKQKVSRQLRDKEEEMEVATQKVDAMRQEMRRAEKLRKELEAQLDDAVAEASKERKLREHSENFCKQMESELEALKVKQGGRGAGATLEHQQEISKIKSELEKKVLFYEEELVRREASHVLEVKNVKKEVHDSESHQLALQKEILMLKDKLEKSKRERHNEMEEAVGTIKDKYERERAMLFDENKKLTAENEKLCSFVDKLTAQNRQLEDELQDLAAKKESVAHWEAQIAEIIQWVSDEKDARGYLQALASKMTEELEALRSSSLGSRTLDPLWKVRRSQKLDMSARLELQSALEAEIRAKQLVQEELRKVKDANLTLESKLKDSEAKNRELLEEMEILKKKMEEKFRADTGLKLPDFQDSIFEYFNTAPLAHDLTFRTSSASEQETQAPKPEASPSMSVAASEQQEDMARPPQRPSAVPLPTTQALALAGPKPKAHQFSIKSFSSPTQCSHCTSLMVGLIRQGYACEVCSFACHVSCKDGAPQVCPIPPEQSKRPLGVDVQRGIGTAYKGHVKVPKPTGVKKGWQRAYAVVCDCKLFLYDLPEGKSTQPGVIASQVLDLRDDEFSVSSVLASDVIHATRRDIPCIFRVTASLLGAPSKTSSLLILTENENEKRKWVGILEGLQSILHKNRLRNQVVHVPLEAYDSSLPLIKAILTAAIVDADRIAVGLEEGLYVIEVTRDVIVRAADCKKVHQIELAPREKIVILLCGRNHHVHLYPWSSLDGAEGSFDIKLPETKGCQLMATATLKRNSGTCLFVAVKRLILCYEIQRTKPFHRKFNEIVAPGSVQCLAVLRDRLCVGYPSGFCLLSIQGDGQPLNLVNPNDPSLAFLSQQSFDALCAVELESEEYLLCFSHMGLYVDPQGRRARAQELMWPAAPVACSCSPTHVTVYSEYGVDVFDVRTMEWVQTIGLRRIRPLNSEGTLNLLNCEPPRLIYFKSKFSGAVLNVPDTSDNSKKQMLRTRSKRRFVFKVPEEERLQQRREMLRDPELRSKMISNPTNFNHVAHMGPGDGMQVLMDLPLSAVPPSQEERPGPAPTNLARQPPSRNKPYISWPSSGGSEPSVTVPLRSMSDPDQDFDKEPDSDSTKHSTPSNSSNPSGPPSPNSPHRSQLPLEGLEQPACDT

340 wild-type kinases [10] = molecular target: T10, 340 wild-type kinases (Homo sapiens, UniProt O00311)
T10 construct: purchased Reaction Biology Europe

340 wild-type kinases [11] = molecular target: T11, 340 wild-type kinases (Homo sapiens, UniProt Q9P0L2)
T11 construct: purchased Reaction Biology Europe

## CNC(=O)c1ccc2c(c1)C(=O)c1ccc(Nc3ccc(F)c(NC(=O)C4CC4)c3)cc1CC2 [Compound 2015]
340 wild-type kinases [1]; 0.2 µM 2015, read-out: ERK7 residual activity
  remaining activity at 0.2 µM: 93%
340 wild-type kinases [1]; 1 µM 2015, read-out: ERK7 residual activity
  remaining activity at 1 µM: 82.2%
340 wild-type kinases [1]; ERK7, 0.2 µM, read-out: residual activity
  remaining activity at 0.2 µM: 93%
340 wild-type kinases [1]; ERK7, 1 µM, read-out: residual activity
  remaining activity at 1 µM: 82.2%
340 wild-type kinases [2]; 0.2 µM 2015, read-out: RET residual activity
  remaining activity at 0.2 µM: 105%
340 wild-type kinases [2]; 1 µM 2015, read-out: RET residual activity
  remaining activity at 1 µM: 80.3%
340 wild-type kinases [2]; RET, 0.2 µM, read-out: residual activity
  remaining activity at 0.2 µM: 105%
340 wild-type kinases [2]; RET, 1 µM, read-out: residual activity
  remaining activity at 1 µM: 80.3%
340 wild-type kinases [3]; 0.2 µM 2015, read-out: MEKK2 residual activity
  remaining activity at 0.2 µM: 96.7%
340 wild-type kinases [3]; 1 µM 2015, read-out: MEKK2 residual activity
  remaining activity at 1 µM: 95.1%
340 wild-type kinases [3]; MEKK2, 0.2 µM, read-out: residual activity
  remaining activity at 0.2 µM: 96.7%
340 wild-type kinases [3]; MEKK2, 1 µM, read-out: residual activity
  remaining activity at 1 µM: 95.1%
340 wild-type kinases [4]; 0.2 µM 2015, read-out: CDK16/CycY residual activity
  remaining activity at 0.2 µM: 99.3%
340 wild-type kinases [4]; 1 µM 2015, read-out: CDK16/CycY residual activity
  remaining activity at 1 µM: 96.8%
340 wild-type kinases [4]; CDK16/CycY, 0.2 µM, read-out: residual activity
  remaining activity at 0.2 µM: 99.3%
340 wild-type kinases [4]; CDK16/CycY, 1 µM, read-out: residual activity
  remaining activity at 1 µM: 96.8%
340 wild-type kinases [5]; 0.2 µM 2015, read-out: PKCeta residual activity
  remaining activity at 0.2 µM: 80.3%
340 wild-type kinases [5]; 1 µM 2015, read-out: PKCeta residual activity
  remaining activity at 1 µM: 90.1%
340 wild-type kinases [5]; PKCeta, 0.2 µM, read-out: residual activity
  remaining activity at 0.2 µM: 80.3%
340 wild-type kinases [5]; PKCeta, 1 µM, read-out: residual activity
  remaining activity at 1 µM: 90.1%
340 wild-type kinases [6]; 0.2 µM 2015, read-out: MKK7 residual activity
  remaining activity at 0.2 µM: 102%
340 wild-type kinases [6]; 1 µM 2015, read-out: MKK7 residual activity
  remaining activity at 1 µM: 117%
340 wild-type kinases [6]; MKK7, 0.2 µM, read-out: residual activity
  remaining activity at 0.2 µM: 102%
340 wild-type kinases [6]; MKK7, 1 µM, read-out: residual activity
  remaining activity at 1 µM: 117%
340 wild-type kinases [7]; 0.2 µM 2015, read-out: AuroraB residual activity
  remaining activity at 0.2 µM: 120%
340 wild-type kinases [7]; 1 µM 2015, read-out: AuroraB residual activity
  remaining activity at 1 µM: 112%
340 wild-type kinases [7]; AuroraB, 0.2 µM, read-out: residual activity
  remaining activity at 0.2 µM: 120%
340 wild-type kinases [7]; AuroraB, 1 µM, read-out: residual activity
  remaining activity at 1 µM: 112%
340 wild-type kinases [8]; 0.2 µM 2015, read-out: IGF1R residual activity
  remaining activity at 0.2 µM: 109%
340 wild-type kinases [8]; 1 µM 2015, read-out: IGF1R residual activity
  remaining activity at 1 µM: 97.4%
340 wild-type kinases [8]; IGF1R, 0.2 µM, read-out: residual activity
  remaining activity at 0.2 µM: 109%
340 wild-type kinases [8]; IGF1R, 1 µM, read-out: residual activity
  remaining activity at 1 µM: 97.4%
340 wild-type kinases [9]; 0.2 µM 2015, read-out: CDC42BPB residual activity
  remaining activity at 0.2 µM: 101%
340 wild-type kinases [9]; 1 µM 2015, read-out: CDC42BPB residual activity
  remaining activity at 1 µM: 93.2%
340 wild-type kinases [9]; CDC42BPB, 0.2 µM, read-out: residual activity
  remaining activity at 0.2 µM: 101%
340 wild-type kinases [9]; CDC42BPB, 1 µM, read-out: residual activity
  remaining activity at 1 µM: 93.2%
340 wild-type kinases [10]; 0.2 µM 2015, read-out: CDC7/DBF4 residual activity
  remaining activity at 0.2 µM: 108%
340 wild-type kinases [10]; 1 µM 2015, read-out: CDC7/DBF4 residual activity
  remaining activity at 1 µM: 95.1%
340 wild-type kinases [10]; CDC7/DBF4, 0.2 µM, read-out: residual activity
  remaining activity at 0.2 µM: 108%
340 wild-type kinases [10]; CDC7/DBF4, 1 µM, read-out: residual activity
  remaining activity at 1 µM: 95.1%
340 wild-type kinases [11]; 0.2 µM 2015, read-out: MARK1 residual activity
  remaining activity at 0.2 µM: 97.9%
340 wild-type kinases [11]; 1 µM 2015, read-out: MARK1 residual activity
  remaining activity at 1 µM: 95.7%
340 wild-type kinases [11]; MARK1, 0.2 µM, read-out: residual activity
  remaining activity at 0.2 µM: 97.9%
340 wild-type kinases [11]; MARK1, 1 µM, read-out: residual activity
  remaining activity at 1 µM: 95.7%
